Measurements as given in patent US11213514B2, “Alpha-1-adrenergic receptor agonist therapy” (The Regents of the University of California, priority 2016, dated 2022).
Where two headings read alike, the source gives them in different places.

Tests used:
PGC1α = experiment: qRT-PCR for PGC1α in mouse heart tissue; type: in vivo
Procedure: (§1) FIGS. 3A-3E. […] FIG. 3A. […] FIG. 3B. […] FIG. 3C. […] FIG. 3E.
(§2) (FIG. 3B). […] (FIG. 3C).
Total RNA was isolated from cells and tissue (QiagenRNeasy Plus mini kit #74134) and analyzed using a NanoDrop (ThermoScientific). For qRT-PCR, one […]g of RNA was reverse transcribed using High Capacity cDNA Reverse Transcription Kit (Life Technologies #4368814). Two step qRT-PCR reactions contained 2% of the cDNA product. All reactions were performed in triplicate in a Roche 480 Light Cycler. Relative quantitation of PCR products used the ΔΔCt method relative to two validated reference genes (Tbp and Polr2a). Similar efficiencies were confirmed for all primers. All probes and primers were from Roche.

[1] = system: neonatal rat ventricular myocytes (NRVMs); experiment: Annexin V / propidium iodide apoptosis and cell death in NRVMs; type: cell-based
Procedure: FIGS. 5A-5B. In neonatal rat ventricular myocytes, dabuzalgron protects against apoptotic and necrotic cell death due to doxorubicin. […] Apoptosis was detected using FITC-labeled Annexin V, cell death was detected using propridium iodide, and nuclei were labeled with Hoechst. FIG. 5A. Representative epifluorescence microscopy for each treatment condition. FIG. 5B. Fluorescence intensity was analyzed using Image J software for 3 independent experiments, using at least 2 wells per condition for each experiment.
Cells were washed with cold PBS two times then incubated with 200 μl binding buffer (10 mM HEPES, 140 mM NaCl, and 2.5 mM CaCl2, pH 7.4) including 10 μL fluorescein isothiocyanate (FITC)-labeled Annexin V, 2 μL propidium iodide (PI) and 1 μg/mL Hoechst 33342 (Molecular Probes, USA) for 15 min at room temperature. They were examined under a epifluorescence microscopy (Olympus IX81 Inverted Light Microscope, UNC Microscopy Core). Images were analyzed using Image J software. The experiment was carried out three independent times with duplicates of each treatment condition. An average of 352 nuclei were counted in an average of 6 microscopic fields per experiment.

ERK = ERK activation in mouse heart lysates with DOX, dabuzalgron and trametinib; type: in vivo
Description: FIGS. 4A-4F. […] The reaction was stopped immediately and lysates were blotted for total and phospho-ERK (pERK). FIG. 4A. […] FIG. 4B. […] FIG. 4C. […] The average pERK/ERK ratio for each experiment was derived from at least 2 individual wells and normalized to the pERK/ERK ratio for vehicle treated NRVMs. FIG. 4D and FIG. 4E. […] Heart lysates were blotted for pERK and ERK. Results were compared using one way ANOVA with Tukey post-test. FIG. 4F.
On Day 7, mice underwent echocardiography and were sacrificed by cervical dislocation after an overdose of isoflurane.
Homogenized tissue or cells were lysed in RIPA buffer with protease and phosphatase inhibitor (as above) and the lysate was passed through a Qiashredder. Equal protein abundance was assured with the Bradford assay (tissue lysates) or equal cell number (NRVMs). Samples were run for 2 hours at 140 v on ice on a Novex NuPAGE 4-12% Bis-Tris gel then transferred to a PVDF membrane at 90V for 1 hour on ice. Membranes were blocked in 5% milk at room temperature for 1 hour. We used Cell Signaling kit #9100 (pERK Thr202/Tyr204 1:250, ERK 1:1000, anti-rabbit HRP 1:1000). BID: (Santa Cruz, SC-11423); Cytochrome C: (Santa Cruz, SC-13560); AIF: (Santa Cruz, SC-13116); Caspase 8: (MBL international corporation, JM-3020-100); PARP: (Cell Signaling, #9532); Caspase 3: (Cell Signaling, #9665); Cleaved caspase 3: (Cell Signaling, #9664)

[2] = system: Complex I, ATP synthase and Cytochrome C oxidase subunit transcripts; experiment: RNAseq transcript abundance of mitochondrial gene sets in mouse heart; type: in vivo
Procedure: as §1
An omnibus test of transcript abundance across all groups was performed with DESeq2 with groups encoded as categorical variables. One hundred-one genes were identified as significant by meeting the q<0.05 threshold (the set of genes with a 5% false discovery rate). Note, genes of potential interest can be found in Table 4.
as §2
RNAseq was performed at the Carolina Center for Genome Sciences High Throughput Sequencing Facility. Libraries were prepared using an Illumina RNA TruSeq kit for total RNA. Single read sequencing (1×100) was performed on an Illumina HiSeq 2000 system. QC-passed reads were aligned to the mouse reference genome (mm9) using MapSplice.3 The alignment profile was determined by Picard Tools v1.64 (broadinstitute.github.io/picard/). Aligned reads were sorted and indexed using SAMtools and translated to transcriptome coordinates then filtered for indels, large inserts, and zero mapping quality using UBU v1.0 (github.com/mozack/ubu). Transcript abundance estimates for each sample were performed using RSEM, an expectation-maximization algorithm4 using the UCSC knownGene transcript and gene definitions. Raw RSEM read counts for all RNAseq samples were normalized to the overall upper quartile.5 Gene level differential expression testing was performed using the method of Love et al. (2014) implemented in the R package DESeq2. Gene set level tests were performed using the method of Efron and Tibshirani (2006) and gene sets as defined in the molecular signatures database, mSigdb.6 .GEO accession number is pending.

mouse heart ATP content = system: mouse heart ATP content
Procedure: FIGS. 3A-3E. […] Heart tissue was collected immediately after sacrifice on Day 7. FIG. 3A. […] Gene set analysis was performed on the DESeq2-derived statistics from an omnibus test across these four categories. […] FIG. 3B. RNA abundance for all sequenced cytochrome C oxidase subunits (25 genes), mitochondrial complex I subunits (42 genes), and ATP synthase subunits (17 genes) was aggregated by group and compared to vehicle treatment. FIG. 3C. Quantitative RT-PCR for peroxisome proliferator-activated receptor gamma coactivator 1-alpha (PGC1α) was performed on mouse heart tissue (n in individual bars) FIG. 3D. ATP content was measured in freshly harvested mouse heart tissue (total n in individual bars), then quantified relative to protein content. […] FIG. 3E. Thiobarbituric acid reactive substances (TBARS) were assayed in mouse myocardium.
as §2
Mouse hearts were removed and immediately processed for luciferin-luciferase ATP assay (ThermoFisher Scientific A22066) according to manufacturer instruction. Tissue was homogenized and heated at 95 C for 7 minutes, centrifuged at 14000 rpm for 5 minutes. Total protein in the supernatant was quantified using the Bradford Assay (Pierce #23200). Luminescence was measured at 560 nm.

[3] = NRVMs, DOX, four hour treatment
[4] = DOX + dabuzalgron 10 μg/kg twice daily
[5] = dabuzalgron in the absence of DOX

COc1cccc2c1C(=O)c1c(O)c3c(c(O)c1C2=O)C[C@@](O)(C(=O)CO)C[C@@H]3O[C@H]1C[C@H](N)[C@H](O)[C@H](C)O1 [DOX, doxorubicin]
PGC1α abundance (PGC1α; mouse heart in vivo, DOX): decreased
apoptosis (Annexin V staining) [1, 3]: increased
necrotic cell death (costaining with Annexin V and propidium iodide) [1, 3]: increased
ERK activation in heart (ERK; mice treated with DOX): reduced
abundance of ATP synthase subunits (17 genes) ([2]; DOX 20 mg/kg, Day 7): decreased
abundance of Complex I subunits (42 genes) ([2]; DOX 20 mg/kg, Day 7): decreased
decrease in ATP content compared to untreated hearts (mouse heart ATP content; mouse, in vivo): 23±7%

Cc1c(OCC2=NCCN2)ccc(Cl)c1NS(C)(=O)=O [dabuzalgron, N-[6-chloro-3-(4,5-dihydro-1H-imidazol-2-ylmethoxy)-2-methylphenyl]methanesulfonamide]
PGC1α abundance (PGC1α; hearts of mice treated with DOX): increased
PGC1α abundance (PGC1α; hearts of mice treated with vehicle control): increased
Annexin V or propidium iodide staining vs untreated cells [1]: did not change
effect on DOX-induced necrotic cell death ([1]; NRVMs, DOX 204 with dabuzalgron 1004, four hours): abrogated
effect on DOX-induced apoptosis ([1]; NRVMs, DOX with dabuzalgron 1004, four hours): abrogated
effect on DOX-induced reduction of ERK activation (ERK; mice, DOX + dabuzalgron): partially mitigated
ERK activation after trametinib (ERK; mice, DOX, dabuzalgron and trametinib): could not restore
expression of ATP synthase subunits after DOX [2, 4]: restored
expression of Complex I subunits after DOX [2, 4]: restored
expression of Cytochrome C oxidase subunits (25 genes) after DOX [2, 4]: increased
ATP synthase subunit abundance [2, 5]: no significant effect
Complex I subunit abundance [2, 5]: increased
Cytochrome C (oxidase subunit) abundance [2, 5]: no significant effect
ATP content (mouse heart ATP content; hearts of DOX-treated mice): restored
ATP content (mouse heart ATP content; uninjured mice): did not affect
